Earlier results as cited in patent US20070093743A1, “Iontophoresis Drug Delivery Device Providing Acceptable Depth and Duration of Dermal Anesthesia” (Vyteris, Inc., priority 2005, published 2007).

Details: iontophoresis in vitro across human skin

Cumulative delivery compared with lidocaine, slightly greater delivery:
CCCNC(C)C(=O)Nc1ccccc1C (stereo not drawn) [prilocaine]
CCN(CC)CCOC(=O)c1ccc(N)cc1 [procaine]
CCCN(CC)C(CC)C(=O)Nc1c(C)cccc1C (stereo not drawn) [etidocaine]
